Reference: PubChem BioAssay AID1963961 (Molecular Pharmacology Branch, DTP, NCI, 2024)
Where “and” joins values, the source holds several entries; their conditions need not be identical. Equal entries are not always repeated.

Test system: K98450-129-R-PDC multicell spheroids, viability
Assay: Anticancer human tumor K98450-129-R-PDC patient-derived colon adenocarcinoma cell line growth inhibition [PI3K]
Details: for viability, T/C: stronger effect = lower value; active means viability on the fitted dose curve at most 10% of control; inactive means the rest
Method in brief: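 Viability of mixed-cell spheroids was determined after exposure to pairwise combinations, one partner being inavolisib, alpelisib, duvelisib or copanlisib. Highest tested concentration matched clinical Cmax where known and 10 microM where not, descending in half-log steps.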

[1] = curve of first compound, second compound 0.0316 µM
[2] = curve of first compound, second compound 0.1 µM
[3] = curve of first compound, second compound 0.316 µM
[4] = curve of first compound, second compound 1 µM
[5] = curve of first compound, second compound 3.16 µM
[6] = curve of first compound, second compound 10 µM
[7] = second compound 0.0316 µM, first compound 0.0316 µM
[8] = second compound 0.0316 µM, first compound 0.1 µM
[9] = second compound 0.0316 µM, first compound 0.316 µM
[10] = second compound 0.0316 µM, first compound 1 µM
[11] = second compound 0.1 µM, first compound 0.0316 µM
[12] = second compound 0.1 µM, first compound 0.1 µM
[13] = second compound 0.1 µM, first compound 0.316 µM
[14] = second compound 0.1 µM, first compound 1 µM
[15] = second compound 0.316 µM, first compound 0.0316 µM
[16] = second compound 0.316 µM, first compound 0.1 µM
[17] = second compound 0.316 µM, first compound 0.316 µM
[18] = second compound 0.316 µM, first compound 1 µM
[19] = second compound 1 µM, first compound 0.0316 µM
[20] = second compound 1 µM, first compound 0.1 µM
[21] = second compound 1 µM, first compound 0.316 µM
[22] = second compound 1 µM, first compound 1 µM
[23] = second compound 3.16 µM, first compound 0.0316 µM
[24] = second compound 3.16 µM, first compound 0.1 µM
[25] = second compound 3.16 µM, first compound 0.316 µM
[26] = second compound 3.16 µM, first compound 1 µM
[27] = second compound 10 µM, first compound 0.0316 µM
[28] = second compound 10 µM, first compound 0.1 µM
[29] = second compound 10 µM, first compound 0.316 µM
[30] = second compound 10 µM, first compound 1 µM
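Further: spheroids exposed to agents for seven days before read-out.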

CC1(C)CCC(Nc2ncc(C(F)(F)F)c(-c3c[nH]c4c(P(C)(C)=O)c(C#N)ccc34)n2)CN1 (centres undefined) + Cc1nc(NC(=O)N2CCCC2C(N)=O)sc1-c1ccnc(C(C)(C)C(F)(F)F)c1
> 10000 nM: IC50 [1] | IC50 [2] | IC50 [3] | IC50 [4] | IC50 [5] | IC50 [6]
inactive: viability, T/C [7] 118% | viability, T/C [8] 101% | viability, T/C [9] 94.7% | viability, T/C [10] 68.7% | viability, T/C (second compound 0.0316 µM, first compound 3.16 µM) 69.8% | viability, T/C (second compound 0.0316 µM, first compound 10 µM) 64.6% | viability, T/C [11] 116% | viability, T/C [12] 104% | viability, T/C [13] 87.2% | viability, T/C [14] 67.4% | viability, T/C (second compound 0.1 µM, first compound 3.16 µM) 71.1% | viability, T/C (second compound 0.1 µM, first compound 10 µM) 67.6% | viability, T/C [15] 104% | viability, T/C [16] 102% | viability, T/C [17] 84.7% | viability, T/C [18] 69% | viability, T/C (second compound 0.316 µM, first compound 3.16 µM) 69.7% | viability, T/C (second compound 0.316 µM, first compound 10 µM) 66.7% | viability, T/C [19] 103% | viability, T/C [20] 96.8% | viability, T/C [21] 85.8% | viability, T/C [22] 69.6% | viability, T/C (second compound 1 µM, first compound 3.16 µM) 70% | viability, T/C (second compound 1 µM, first compound 10 µM) 63.4% | viability, T/C [23] 88.1% | viability, T/C [24] 95.5% | viability, T/C [25] 83% | viability, T/C [26] 67.8% | viability, T/C (second compound 3.16 µM, first compound 3.16 µM) 67.4% | viability, T/C (second compound 3.16 µM, first compound 10 µM) 56.5% | viability, T/C [27] 81.6% | viability, T/C [28] 85.5% | viability, T/C [29] 70% | viability, T/C [30] 60.8% | viability, T/C (second compound 10 µM, first compound 3.16 µM) 62.4% | viability, T/C (second compound 10 µM, first compound 10 µM) 50.5%

C=CC(=O)N1CCN(c2nc(=O)n(-c3c(C)ccnc3C(C)C)c3nc(-c4c(O)cccc4F)c(F)cc23)C(C)C1 (centres undefined)
inactive: viability, T/C (compound 0.0316 µM) 104% [middle of 4 runs] | viability, T/C (compound 0.1 µM) 98.4% [middle of 4 runs] | viability, T/C (compound 0.316 µM) 102% [middle of 4 runs] | viability, T/C (compound 3.16 µM) 56% [middle of 4 runs]

CC1(C)CCC(Nc2ncc(C(F)(F)F)c(-c3c[nH]c4c(P(C)(C)=O)c(C#N)ccc34)n2)CN1 (centres undefined)
8620 nM and > 10000 nM and 9210 nM: IC50 (curve of compound)
inactive: viability, T/C (compound 0.0316 µM) 107% and 114% (2×) and 124% | viability, T/C (compound 0.1 µM) 99% [middle of 4 runs] | viability, T/C (compound 0.316 µM) 88.8% [middle of 4 runs] | viability, T/C (compound 1 µM) 70.6% [middle of 4 runs] | viability, T/C (compound 3.16 µM) 66.8% [middle of 4 runs] | viability, T/C (compound 10 µM) 63.4% [middle of 4 runs]

CCN1CCN(Cc2ccc(Nc3ncc(F)c(-c4cc(F)c5nc(C)n(C(C)C)c5c4)n3)nc2)CC1 + Cc1nc(NC(=O)N2CCCC2C(N)=O)sc1-c1ccnc(C(C)(C)C(F)(F)F)c1
> 1000 nM: IC50 [1] | IC50 [2] | IC50 [3] | IC50 [4] | IC50 [5] | IC50 [6]
inactive: viability, T/C (second compound 0.0316 µM, first compound 0.00316 µM) 115% | viability, T/C (second compound 0.0316 µM, first compound 0.01 µM) 97.7% | viability, T/C [7] 106% | viability, T/C [8] 91.1% | viability, T/C [9] 86.9% | viability, T/C [10] 94.8% | viability, T/C (second compound 0.1 µM, first compound 0.00316 µM) 115% | viability, T/C (second compound 0.1 µM, first compound 0.01 µM) 95.9% | viability, T/C [11] 99.8% | viability, T/C [12] 93.5% | viability, T/C [13] 96.8% | viability, T/C [14] 91.1% | viability, T/C (second compound 0.316 µM, first compound 0.00316 µM) 103% | viability, T/C (second compound 0.316 µM, first compound 0.01 µM) 102% | viability, T/C [15] 91.1% | viability, T/C [16] 87.7% | viability, T/C [17] 85.3% | viability, T/C [18] 96% | viability, T/C (second compound 1 µM, first compound 0.00316 µM) 98.3% | viability, T/C (second compound 1 µM, first compound 0.01 µM) 89.4% | viability, T/C [19] 91.2% | viability, T/C [20] 87.4% | viability, T/C [21] 84.6% | viability, T/C [22] 85.6% | viability, T/C (second compound 3.16 µM, first compound 0.00316 µM) 84.8% | viability, T/C (second compound 3.16 µM, first compound 0.01 µM) 80.6% | viability, T/C [23] 86.2% | viability, T/C [24] 84.7% | viability, T/C [25] 79.3% | viability, T/C [26] 83.5% | viability, T/C (second compound 10 µM, first compound 0.00316 µM) 73.7% | viability, T/C (second compound 10 µM, first compound 0.01 µM) 75.9% | viability, T/C [27] 70.6% | viability, T/C [28] 67.5% | viability, T/C [29] 67% | viability, T/C [30] 70.4%

Cn1cnc2c(F)c(Nc3ccc(Br)cc3Cl)c(C(=O)NOCCO)cc21 + Cc1nc(NC(=O)N2CCCC2C(N)=O)sc1-c1ccnc(C(C)(C)C(F)(F)F)c1
694 nM: IC50 [4]
active: viability, T/C (second compound 1 µM, first compound 3 µM) 8.14% | viability, T/C (second compound 3.16 µM, first compound 3 µM) 4.89% | viability, T/C (second compound 10 µM, first compound 0.949 µM) 10.3% | viability, T/C (second compound 10 µM, first compound 3 µM) 2.85%
inactive: viability, T/C (second compound 0.0316 µM, first compound 0.00949 µM) 95.2% | viability, T/C (second compound 0.0316 µM, first compound 0.03 µM) 87.1% | viability, T/C (second compound 0.0316 µM, first compound 0.0949 µM) 91.9% | viability, T/C (second compound 0.0316 µM, first compound 0.3 µM) 78.3% | viability, T/C (second compound 0.0316 µM, first compound 0.949 µM) 61.2% | viability, T/C (second compound 0.0316 µM, first compound 3 µM) 17.2% | viability, T/C (second compound 0.1 µM, first compound 0.00949 µM) 107% | viability, T/C (second compound 0.1 µM, first compound 0.03 µM) 89.1% | viability, T/C (second compound 0.1 µM, first compound 0.0949 µM) 84.7% | viability, T/C (second compound 0.1 µM, first compound 0.3 µM) 77% | viability, T/C (second compound 0.1 µM, first compound 0.949 µM) 54.3% | viability, T/C (second compound 0.1 µM, first compound 3 µM) 15.6% | viability, T/C (second compound 0.316 µM, first compound 0.00949 µM) 89% | viability, T/C (second compound 0.316 µM, first compound 0.03 µM) 89.2% | viability, T/C (second compound 0.316 µM, first compound 0.0949 µM) 79.1% | viability, T/C (second compound 0.316 µM, first compound 0.3 µM) 71.2% | viability, T/C (second compound 0.316 µM, first compound 0.949 µM) 53.5% | viability, T/C (second compound 0.316 µM, first compound 3 µM) 11.2% | viability, T/C (second compound 1 µM, first compound 0.00949 µM) 85.3% | viability, T/C (second compound 1 µM, first compound 0.03 µM) 82.4% | viability, T/C (second compound 1 µM, first compound 0.0949 µM) 78.9% | viability, T/C (second compound 1 µM, first compound 0.3 µM) 67.2% | viability, T/C (second compound 1 µM, first compound 0.949 µM) 43.5% | viability, T/C (second compound 3.16 µM, first compound 0.00949 µM) 76.8% | viability, T/C (second compound 3.16 µM, first compound 0.03 µM) 74.1% | viability, T/C (second compound 3.16 µM, first compound 0.0949 µM) 71.3% | viability, T/C (second compound 3.16 µM, first compound 0.3 µM) 58.5% | viability, T/C (second compound 3.16 µM, first compound 0.949 µM) 32.1% | viability, T/C (second compound 10 µM, first compound 0.00949 µM) 63.1% | viability, T/C (second compound 10 µM, first compound 0.03 µM) 61.1% | viability, T/C (second compound 10 µM, first compound 0.0949 µM) 60.3% | viability, T/C (second compound 10 µM, first compound 0.3 µM) 39.4%
1260 nM: IC50 [1]
1030 nM: IC50 [2]
434 nM: IC50 [5]
165 nM: IC50 [6]
998 nM: IC50 [3]

C#Cc1c(F)ccc2cc(O)cc(-c3ncc4c(N5CC6CCC(C5)N6)nc(OCC56CCCN5CC(F)C6)nc4c3F)c12 (centres undefined)
inactive: viability, T/C (compound 0.0316 µM) 109% [middle of 4 runs] | viability, T/C (compound 0.1 µM) 106% [middle of 4 runs] | viability, T/C (compound 0.316 µM) 104% (2×) and 101% and 102% | viability, T/C (compound 1 µM) 105% [middle of 4 runs] | viability, T/C (compound 3.16 µM) 99.8% and 91.5% (2×) and 108% | viability, T/C (compound 10 µM) 89.9% [middle of 4 runs]
> 10000 nM: IC50 (curve of compound)
